Tests used:
Format in all cases: in vivo
[1] = tested on: soybean (Glycine max); assay: Test C pre-/postemergence greenhouse test, plant response rating 0-100
In short: (§1)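 Pre- and postemergence greenhouse test: seeds sown in loam/sand and treated preemergence, or plants at 2–18 cm (1- to 4-leaf stage) in peat-based medium sprayed postemergence, with compounds in non-phytotoxic solvent plus surfactant. Visual rating versus untreated controls after 13–15 days, 0 (no effect) to 100 (complete control).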

[2] = tested on: galium (catchweed bedstraw, Galium aparine); assay: as above
In short: as §1

[3] = tested on: pigweed (Amaranthus retroflexus); assay: as above
In short: as §1

[4] = tested on: yellow nutsedge (Cyperus esculentus); assay: as above
In short: as §1

[5] = tested on: corn (Zea mays); assay: as above
In short: as §1

[6] = tested on: winter wheat (Triticum aestivum); assay: as above
In short: as §1

[7] = tested on: lambsquarters (Chenopodium album); assay: as above
In short: as §1

[8] = tested on: giant foxtail (Setaria faberii); assay: as above
In short: as §1

[9] = tested on: Italian ryegrass (Lolium multiflorum); assay: as above
In short: as §1

[10] = tested on: johnsongrass (Sorghum halepense); assay: as above
In short: as §1

[11] = tested on: wild oat (Avena fatua); assay: Test C postemergence greenhouse test, plant response rating 0-100; details: for Plant response rating, Oat, Wild: 250 g ai/ha, scale 0 to 100
In short: (§2)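 Scores run from 0, meaning no effect, to 100, meaning complete control, and come from visual comparison with untreated controls. Treatment was a postemergence application to plants 2–18 cm tall. Assessment followed 13 to 15 days of greenhouse growth.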

[12] = tested on: chickweed (common chickweed, Stellaria media); assay: as above; details: for Plant response rating, Chickweed: 250 g ai/ha, scale 0 to 100
In short: as §2

[13] = tested on: kochia (Kochia scoparia); assay: as above; details: for Plant response rating, Kochia: 250 g ai/ha, scale 0 to 100
In short: as §2

[14] = Postemergence, 250 g ai/ha, scale 0 to 100

O=C(c1cncc(F)c1)c1c[nH]nc1-c1cc(Cl)cc(Cl)c1 [Compound 19]
Plant response rating (0 to 100), Soybean ([1]; Postemergence, 62 g ai/ha): 0 | Plant response rating (0 to 100), Soybean ([1]; Postemergence, 125 g ai/ha): 0 | Plant response rating, Soybean [1, 14]: 0 | Plant response rating, Soybean ([1]; Preemergence, 62 g ai/ha): 0 | Plant response rating, Soybean ([1]; Preemergence, 125 g ai/ha): 0 | Plant response rating, Soybean ([1]; Preemergence, 250 g ai/ha): 85 | Plant response rating (0 to 100), Galium ([2]; Postemergence, 31 g ai/ha): 15 | Plant response rating (0 to 100), Galium ([2]; Postemergence, 62 g ai/ha): 40 | Plant response rating (0 to 100), Galium ([2]; Postemergence, 125 g ai/ha): 40 | Plant response rating, Galium [2, 14]: 45 | Plant response rating, Galium ([2]; Preemergence, 31 g ai/ha): 0 | Plant response rating, Galium ([2]; Preemergence, 62 g ai/ha): 80 | Plant response rating, Galium ([2]; Preemergence, 125 g ai/ha): 95 | Plant response rating, Galium ([2]; Preemergence, 250 g ai/ha): 100 | Plant response rating (0 to 100), Pigweed ([3]; Postemergence, 62 g ai/ha): 85 | Plant response rating (0 to 100), Pigweed ([3]; Postemergence, 125 g ai/ha): 90 | Plant response rating, Pigweed [3, 14]: 95 | Plant response rating, Pigweed ([3]; Preemergence, 31 g ai/ha): 75 | Plant response rating, Pigweed ([3]; Preemergence, 62 g ai/ha): 85 | Plant response rating, Pigweed ([3]; Preemergence, 125 g ai/ha): 100 | Plant response rating, Pigweed ([3]; Preemergence, 250 g ai/ha): 100 | Plant response rating (0 to 100), Nutsedge, Yellow ([4]; Postemergence, 62 g ai/ha): 5 | Plant response rating (0 to 100), Nutsedge, Yellow ([4]; Postemergence, 125 g ai/ha): 5 | Plant response rating, Nutsedge, Yellow [4, 14]: 5 | Plant response rating, Nutsedge, Yellow ([4]; Preemergence, 31 g ai/ha): 0 | Plant response rating, Nutsedge, Yellow ([4]; Preemergence, 62 g ai/ha): 0 | Plant response rating, Nutsedge, Yellow ([4]; Preemergence, 125 g ai/ha): 0 | Plant response rating, Nutsedge, Yellow ([4]; Preemergence, 250 g ai/ha): 0 | Plant response rating (0 to 100), Corn ([5]; Postemergence, 31 g ai/ha): 0 | Plant response rating (0 to 100), Corn ([5]; Postemergence, 62 g ai/ha): 0 | Plant response rating (0 to 100), Corn ([5]; Postemergence, 125 g ai/ha): 0 | Plant response rating, Corn [5, 14]: 0 | Plant response rating, Corn ([5]; Preemergence, 31 g ai/ha): 0 | Plant response rating, Corn ([5]; Preemergence, 62 g ai/ha): 0 | Plant response rating, Corn ([5]; Preemergence, 125 g ai/ha): 0 | Plant response rating, Corn ([5]; Preemergence, 250 g ai/ha): 0 | Plant response rating (0 to 100), Wheat ([6]; Postemergence, 62 g ai/ha): 0 | Plant response rating (0 to 100), Wheat ([6]; Postemergence, 125 g ai/ha): 0 | Plant response rating, Wheat [6, 14]: 0 | Plant response rating, Wheat ([6]; Preemergence, 62 g ai/ha): 0 | Plant response rating, Wheat ([6]; Preemergence, 125 g ai/ha): 0 | Plant response rating, Wheat ([6]; Preemergence, 250 g ai/ha): 0 | Plant response rating (0 to 100), Lambsquarters ([7]; Postemergence, 62 g ai/ha): 10 | Plant response rating (0 to 100), Lambsquarters ([7]; Postemergence, 125 g ai/ha): 15 | Plant response rating, Lambsquarters [7, 14]: 10 | Plant response rating, Lambsquarters ([7]; Preemergence, 31 g ai/ha): 100 | Plant response rating, Lambsquarters ([7]; Preemergence, 62 g ai/ha): 100 | Plant response rating, Lambsquarters ([7]; Preemergence, 125 g ai/ha): 100 | Plant response rating, Lambsquarters ([7]; Preemergence, 250 g ai/ha): 100 | Plant response rating (0 to 100), Foxtail, Giant ([8]; Postemergence, 31 g ai/ha): 0 | Plant response rating (0 to 100), Foxtail, Giant ([8]; Postemergence, 62 g ai/ha): 0 | Plant response rating (0 to 100), Foxtail, Giant ([8]; Postemergence, 125 g ai/ha): 5 | Plant response rating, Foxtail, Giant [8, 14]: 5 | Plant response rating, Foxtail, Giant ([8]; Preemergence, 31 g ai/ha): 0 | Plant response rating, Foxtail, Giant ([8]; Preemergence, 62 g ai/ha): 0 | Plant response rating, Foxtail, Giant ([8]; Preemergence, 125 g ai/ha): 0 | Plant response rating, Foxtail, Giant ([8]; Preemergence, 250 g ai/ha): 0 | Plant response rating (0 to 100), Ryegrass, Italian ([9]; Postemergence, 62 g ai/ha): 0 | Plant response rating (0 to 100), Ryegrass, Italian ([9]; Postemergence, 125 g ai/ha): 0 | Plant response rating, Ryegrass, Italian [9, 14]: 5 | Plant response rating, Ryegrass, Italian ([9]; Preemergence, 62 g ai/ha): 0 | Plant response rating, Ryegrass, Italian ([9]; Preemergence, 125 g ai/ha): 0 | Plant response rating, Ryegrass, Italian ([9]; Preemergence, 250 g ai/ha): 10 | Plant response rating (0 to 100), Johnsongrass ([10]; Postemergence, 62 g ai/ha): 0 | Plant response rating (0 to 100), Johnsongrass ([10]; Postemergence, 125 g ai/ha): 0 | Plant response rating, Johnsongrass [10, 14]: 0 | Plant response rating, Johnsongrass ([10]; Preemergence, 31 g ai/ha): 0 | Plant response rating, Johnsongrass ([10]; Preemergence, 62 g ai/ha): 0 | Plant response rating, Johnsongrass ([10]; Preemergence, 125 g ai/ha): 0 | Plant response rating, Johnsongrass ([10]; Preemergence, 250 g ai/ha): 0 | Plant response rating (0 to 100), Oat, Wild ([11]; 62 g ai/ha): 0 | Plant response rating (0 to 100), Oat, Wild ([11]; 125 g ai/ha): 0 | Plant response rating, Oat, Wild [11]: 0 | Plant response rating (0 to 100), Chickweed ([12]; 31 g ai/ha): 95 | Plant response rating (0 to 100), Chickweed ([12]; 62 g ai/ha): 80 | Plant response rating (0 to 100), Chickweed ([12]; 125 g ai/ha): 98 | Plant response rating, Chickweed [12]: 98 | Plant response rating (0 to 100), Kochia ([13]; 62 g ai/ha): 80 | Plant response rating (0 to 100), Kochia ([13]; 125 g ai/ha): 85 | Plant response rating, Kochia [13]: 90

Cn1cc(C(=NN2CCCC2)c2ccccc2)c(-c2cc(Cl)c(Cl)c(Cl)c2)n1 [Compound 25]
Plant response rating (0 to 100), Soybean ([1]; Postemergence, 62 g ai/ha): 0 | Plant response rating (0 to 100), Soybean ([1]; Postemergence, 125 g ai/ha): 0 | Plant response rating, Soybean [1, 14]: 10 | Plant response rating (0 to 100), Galium ([2]; Postemergence, 31 g ai/ha): 0 | Plant response rating (0 to 100), Galium ([2]; Postemergence, 62 g ai/ha): 0 | Plant response rating (0 to 100), Galium ([2]; Postemergence, 125 g ai/ha): 0 | Plant response rating, Galium [2, 14]: 0 | Plant response rating (0 to 100), Pigweed ([3]; Postemergence, 62 g ai/ha): 80 | Plant response rating (0 to 100), Pigweed ([3]; Postemergence, 125 g ai/ha): 98 | Plant response rating, Pigweed [3, 14]: 100 | Plant response rating (0 to 100), Nutsedge, Yellow ([4]; Postemergence, 62 g ai/ha): 0 | Plant response rating (0 to 100), Nutsedge, Yellow ([4]; Postemergence, 125 g ai/ha): 0 | Plant response rating, Nutsedge, Yellow [4, 14]: 0 | Plant response rating (0 to 100), Corn ([5]; Postemergence, 31 g ai/ha): 0 | Plant response rating (0 to 100), Corn ([5]; Postemergence, 62 g ai/ha): 0 | Plant response rating (0 to 100), Corn ([5]; Postemergence, 125 g ai/ha): 0 | Plant response rating, Corn [5, 14]: 0 | Plant response rating (0 to 100), Wheat ([6]; Postemergence, 62 g ai/ha): 0 | Plant response rating (0 to 100), Wheat ([6]; Postemergence, 125 g ai/ha): 0 | Plant response rating, Wheat [6, 14]: 0 | Plant response rating (0 to 100), Lambsquarters ([7]; Postemergence, 62 g ai/ha): 0 | Plant response rating (0 to 100), Lambsquarters ([7]; Postemergence, 125 g ai/ha): 0 | Plant response rating, Lambsquarters [7, 14]: 20 | Plant response rating (0 to 100), Foxtail, Giant ([8]; Postemergence, 31 g ai/ha): 0 | Plant response rating (0 to 100), Foxtail, Giant ([8]; Postemergence, 62 g ai/ha): 0 | Plant response rating (0 to 100), Foxtail, Giant ([8]; Postemergence, 125 g ai/ha): 0 | Plant response rating, Foxtail, Giant [8, 14]: 0 | Plant response rating (0 to 100), Ryegrass, Italian ([9]; Postemergence, 62 g ai/ha): 0 | Plant response rating (0 to 100), Ryegrass, Italian ([9]; Postemergence, 125 g ai/ha): 0 | Plant response rating, Ryegrass, Italian [9, 14]: 5 | Plant response rating (0 to 100), Johnsongrass ([10]; Postemergence, 62 g ai/ha): 0 | Plant response rating (0 to 100), Johnsongrass ([10]; Postemergence, 125 g ai/ha): 0 | Plant response rating, Johnsongrass [10, 14]: 0 | Plant response rating (0 to 100), Oat, Wild ([11]; 62 g ai/ha): 0 | Plant response rating (0 to 100), Oat, Wild ([11]; 125 g ai/ha): 0 | Plant response rating, Oat, Wild [11]: 10 | Plant response rating (0 to 100), Chickweed ([12]; 31 g ai/ha): 10 | Plant response rating (0 to 100), Chickweed ([12]; 62 g ai/ha): 75 | Plant response rating (0 to 100), Chickweed ([12]; 125 g ai/ha): 75 | Plant response rating, Chickweed [12]: 75 | Plant response rating (0 to 100), Kochia ([13]; 62 g ai/ha): 0 | Plant response rating (0 to 100), Kochia ([13]; 125 g ai/ha): 15 | Plant response rating, Kochia [13]: 15

Reference: patent publication US10167262B2, “Herbicidal substituted 3-arylpyrazoles” (FMC CORPORATION, priority 2014, dated 2019)
